# Measured values as given in the Deep4Chem optical property database.
# Experiment: solvent given as SMILES
# [1] = in O=P(c1ccccc1)(c1ccccc1)c1ccccc1Oc1ccccc1P(=O)(c1ccccc1)c1ccccc1
# [2] = in c1cc(-c2cccc(-n3c4ccccc4c4ccccc43)c2)cc(-n2c3ccccc3c3ccccc32)c1
smiles,measurement,setting,value
Cc1csc2[n+]1[B-](F)(F)OC(c1ccc(N(C)C)cc1)=N2,fluorescence lifetime,in C1CCOC1,2.24 ns
C[Si](C)(C)c1ccc(C#N)c2ccccc12,fluorescence lifetime,in C1CCCCC1,11 ns
CCOC(=O)c1c(CSc2ccccc2)n(C)c2cc(Br)c(O)c(CN(C)C)c12,fluorescence lifetime,in O,3 ns
C[Si](C)(C)C#CC(C#C[Si](C)(C)C)=Cc1ccc(C=C(C#C[Si](C)(C)C)C#C[Si](C)(C)C)s1,fluorescence lifetime,in ClC(Cl)Cl,0.3 ns
Cc1ccc(-c2cc(C)[o+]c(C)c2)cc1,fluorescence lifetime,in CC#N,8.7 ns
same,fluorescence lifetime,in ClCCl,3.3 ns
CC1(C)C(=O)C=Cc2ccc(N)cc21,fluorescence lifetime,in O,3.49 ns
CCCCCCN1C(=O)c2cccc3c(-c4sc(-c5ccc6c7c(cccc57)C(=O)N(CCCCCC)C6=O)c5c4OCCO5)ccc(c23)C1=O,fluorescence lifetime,in ClC(Cl)Cl,0.462 ns
Cc1ccc(-c2cc(-c3ccccc3)c3c(N)nc(N4CCCC4)c(C#N)c3n2)cc1,fluorescence lifetime,in CC#N,10.3 ns
same,fluorescence lifetime,in CC(C)=O,9.9 ns
same,fluorescence lifetime,in CC(C)O,10.4 ns
same,fluorescence lifetime,in CO,8.5 ns
same,fluorescence lifetime,in ClC(Cl)Cl,13.1 ns
same,fluorescence lifetime,in ClCCl,13.1 ns
same,fluorescence lifetime,in c1ccccc1,12.6 ns
Clc1nc(Nc2ccccc2)nc(Nc2ccc3cc4ccccc4cc3c2)n1,fluorescence lifetime,in C1COCCO1,10.3 ns
same,fluorescence lifetime,in CCOC(C)=O,6.6 ns
CCc1ccc(-n2c3ccccc3c3cc4c(cc32)c2ccccc2n4-c2ccc(CC)s2)s1,fluorescence lifetime,in ClC(Cl)Cl,0.63 ns
O=C1c2cccc3cc4ccccc4c(c23)C(=O)N1Cc1ccccn1,fluorescence lifetime,in CCO,15.2 ns
COc1ccc(/C=C/C2=[O+][B-](F)(F)OC(/C=C/c3ccc(OC)c4ccccc34)=C2c2ccccc2)c2ccccc12,fluorescence lifetime,in CC#N,0.63 ns
same,fluorescence lifetime,in CC(C)=O,1.02 ns
same,fluorescence lifetime,in CCOC(C)=O,1.28 ns
same,fluorescence lifetime,in CCOCC,1.12 ns
same,fluorescence lifetime,in ClC(Cl)(Cl)Cl,0.94 ns
same,fluorescence lifetime,in ClCCl,1.91 ns
Fc1cc(-c2nc(-c3ccccc3)nc(-c3ccccc3)n2)ccc1-n1c2ccccc2c2c3c(ccc21)C1(c2ccccc2-c2ccccc21)c1ccccc1-3,fluorescence lifetime,[1],8.3 ns
FC(F)(F)c1ccc(-c2nnc(-c3cc(-n4c5ccccc5c5ccccc54)c(-n4c5ccccc5c5ccccc54)cc3-c3nnc(-c4ccc(C(F)(F)F)cc4)o3)o2)cc1,fluorescence lifetime,in Cc1ccccc1,19.1 ns
O=Cc1ccc2c(c1)c1ccccc1n2-c1ccc(-c2ccc(-n3c4ccccc4c4cc(C=O)ccc43)cc2)cc1,fluorescence lifetime,in ClCCl,1 ns
C(=C\c1nc2ccccc2s1)/c1ccccc1,fluorescence lifetime,in C1CCCCC1,0.17 ns
CCCCCCCCOc1cc(/C=C/c2cc[n+](Cc3ccc(C)cc3)cc2)c(OCCCCCCCC)cc1/C=C/c1cc[n+](Cc2ccc(C)cc2)cc1,fluorescence lifetime,in ClCCl,1.23 ns
COC(=O)/C(C#N)=c1\s/c(=c2/s/c(=C(/C#N)C(=O)OC)c3cc(-c4ccccc4)sc23)c2sc(-c3ccccc3)cc12,fluorescence lifetime,in Cc1ccccc1,2.82 ns
CCn1c2ccccc2c2c3nsnc3c3c4ccccc4n(CC)c3c21,fluorescence lifetime,in CN(C)C=O,1.07 ns
same,fluorescence lifetime,in Cc1ccccc1,0.97 ns
same,fluorescence lifetime,in ClCCl,1 ns
Cc1cc(-c2nc(-c3ccccc3)nc(-c3ccccc3)n2)ccc1-n1c2ccccc2c2cc3c(cc21)C1c2ccccc2C3c2ccccc21,fluorescence lifetime,[1],10.6 ns
COc1ccc(C#Cc2c3cc4cc(C)sc4cc3c(C#Cc3ccc(OC)cc3)c3cc4cc(C)sc4cc23)cc1,fluorescence lifetime,in ClCCl,7.7 ns
CC(C)(C)c1ccc(-c2nnc(-c3c(-n4c5ccccc5c5ccccc54)c(-n4c5ccccc5c5ccccc54)c(-c4nnc(-c5ccc(C(C)(C)C)cc5)o4)c(-n4c5ccccc5c5ccccc54)c3-n3c4ccccc4c4ccccc43)o2)cc1,fluorescence lifetime,in Cc1ccccc1,12.7 ns
Cc1ccc(-c2ccc(-c3ccc(-c4ccc(-c5ccc(C)cc5)cc4)c(/C(=C(/c4ccccc4)c4cc(-c5ccc(-c6ccc(C)cc6)cc5)ccc4-c4ccc(-c5ccc(C)cc5)cc4)c4ccccc4)c3)cc2)cc1,fluorescence lifetime,in C1CCOC1,8.5 ns
COc1c2ccccc2c(OC)c2c1c1cccc(OC)c1n2C,fluorescence lifetime,in C1CCCCC1,21.8 ns
same,fluorescence lifetime,in CC#N,26.7 ns
same,fluorescence lifetime,in CO,25.2 ns
same,fluorescence lifetime,in ClCCl,22 ns
COc1cc(OC)c2c(c1)C(=O)c1ccc(OC)cc1-2,fluorescence lifetime,in C1CCCCC1,4.4 ns
same,fluorescence lifetime,in CC#N,1.2 ns
Cc1cccc(C)c1Nc1ccc(/C=C/c2ccc3ccccc3c2)cc1,fluorescence lifetime,in CC#N,0.2 ns
CCN(CC)c1ccc2c(c1)oc(=O)c1cc3c(-c4ccccc4)nn(-c4ccccc4)c3nc12,fluorescence lifetime,in ClCCl,17.9 ns
CC(C)(C)n1c(=O)c2cc3ccc4cccc5ccc(c2c1=O)c3c45,fluorescence lifetime,in ClC(Cl)Cl,4.09 ns
COc1ccc(/C2=C3N=C(C(c4ccccc4)=C/3c3ccccc3)/C(c3ccc(OC)cc3)=c3\[nH]/c(c(-c4ccccc4)c3-c3ccccc3)=C(/c3ccc(OC)cc3)C3=N/C(=C(/c4ccc(OC)cc4)c4[nH]c2c(-c2ccccc2)c4-c2ccccc2)C(c2ccccc2)=C3c2ccccc2)cc1,fluorescence lifetime,in ClCCl,0.921 ns
CN(C)c1ccc2nc(-c3ccc(C(=O)O)cc3)sc2c1,fluorescence lifetime,in C1CCCCC1,2.4 ns
same,fluorescence lifetime,in c1ccccc1,2.5 ns
COc1ccc(C2=C(c3ccc(C)cc3)C(c3ccccc3)=[N+]3C2=Nc2c(-c4ccc(OC)cc4)c(-c4ccc(C)cc4)c(-c4ccccc4)n2[B-]3(F)F)cc1,fluorescence lifetime,in Cc1ccccc1,0.23 ns
CCC1=C(C)C2=Cc3cc(I)c(I)n3[B-](F)(F)[N+]2=C1C,fluorescence lifetime,in C1CCCCC1,1.04 ns
same,fluorescence lifetime,in CC(C)=O,0.753 ns
same,fluorescence lifetime,in CCO,0.943 ns
same,fluorescence lifetime,in CCOC(C)=O,0.836 ns
same,fluorescence lifetime,in CO,0.848 ns
same,fluorescence lifetime,in OCC(F)(F)F,0.676 ns
CCOC(=O)CCCCCn1c2ccccc2c(=O)c2cc3c(cc21)c(=O)c1ccccc1n3CCCCCC(=O)OCC,fluorescence lifetime,in CO,21.6 ns
CC(C)(C)c1ccc(-c2nc3c4ccccc4c4ccccc4c3n2-c2ccc(C(C)(C)C)cc2)cc1,fluorescence lifetime,in ClCCl,6.4 ns
N#C/C(=C\c1ccc(C#N)cc1)c1nc(-c2ccccc2)cs1,fluorescence lifetime,in CC#N,3.4 ns
COc1ccc2c(c1)c1cc(OC)ccc1c1c2c2c(C(=O)NC(C)(C)C)ccc(C(=O)NC(C)(C)C)c2c2c3ccc(OC)cc3c3cc(OC)ccc3c21,fluorescence lifetime,in ClCCl,0.85 ns
C1=CC2=CC=CC3C=c4c(cc5cccc6cccc4c65)C(=C1)C23 (configuration not stated),fluorescence lifetime,in ClCCl,7.18 ns
CCOC(=O)/N=c1/oc2c(OC)cccc2cc1C#N,fluorescence lifetime,in ClCCl,0.3 ns
COC(=O)c1[nH]c(-c2ccc(OC)cc2)c2nnc3ccc(OC)cc3c12,fluorescence lifetime,in ClCCl,6.1 ns
CN(C)c1ccc(-c2cc(-c3ccc4ccccc4c3)nc(-c3ccccc3)n2)cc1,fluorescence lifetime,in C1CCCCC1,2.9 ns
same,fluorescence lifetime,in CS(C)=O,1.6 ns
same,fluorescence lifetime,in ClC(Cl)Cl,2.4 ns
CCCCCCN1C(=O)c2cccc3c(-c4ccc(-c5ccc(-c6ccc7c8c(cccc68)C(=O)N(CCCCCC)C7=O)s5)s4)ccc(c23)C1=O,fluorescence lifetime,in ClC(Cl)Cl,0.535 ns
N#Cc1cnc(-c2c3ccccc3cc3ccccc23)nc1,fluorescence lifetime,in CCO,1.3 ns
same,fluorescence lifetime,in ClCCl,1.6 ns
O=C(c1ccc(N2c3ccccc3Oc3ccccc32)cc1)c1cccc(C(=O)c2ccc(N3c4ccccc4Oc4ccccc43)cc2)c1,fluorescence lifetime,[2],24 ns
COc1c2ccccc2c(OC)c2c1c1cc(Cl)ccc1n2C,fluorescence lifetime,in C1CCCCC1,21.2 ns
same,fluorescence lifetime,in CC#N,26.8 ns
same,fluorescence lifetime,in CO,25.9 ns
same,fluorescence lifetime,in ClCCl,23.2 ns
Cc1ccc2c(c1)C(c1ccccc1)(c1ccccc1)c1cc(C)ccc1N2c1cc(C(C)C)c(B2c3ccccc3Sc3ccccc32)c(C(C)C)c1,fluorescence lifetime,in Cc1ccccc1,47 ns
same,fluorescence lifetime,in O=P(c1ccccc1)(c1ccccc1)c1ccc2oc3ccc(P(=O)(c4ccccc4)c4ccccc4)cc3c2c1,21 ns
CC1=C(c2ccccc2)C(C)=[N+]2C1=C(c1c(-c3ccccn3)nc3ccccn13)c1c(C)cc(C)n1[B-]2(F)F,fluorescence lifetime,in ClCCl,6.2 ns
CCCCC1=Cc2c3ccc4cccc5ccc(c6cc(-c7ccccc7)n(c26)P1(=O)c1ccccc1)c3c45 (configuration not stated),fluorescence lifetime,in C1CCCCC1,1.9 ns
same,fluorescence lifetime,in C1CCOC1,1.7 ns
same,fluorescence lifetime,in C1COCCO1,1.8 ns
same,fluorescence lifetime,in CC#N,1.8 ns
same,fluorescence lifetime,in CC(C)=O,1.8 ns
same,fluorescence lifetime,in CO,1.7 ns
same,fluorescence lifetime,in Cc1ccccc1,1.7 ns
same,fluorescence lifetime,in ClC(Cl)Cl,1.6 ns
same,fluorescence lifetime,in ClCCl,1.6 ns
C(#Cc1ccc(-n2c3ccccc3c3ccccc32)cc1)c1ccccc1,fluorescence lifetime,in CC#N,4.36 ns
same,fluorescence lifetime,in CCCCC,2.6 ns
same,fluorescence lifetime,in CO,3.7 ns
same,fluorescence lifetime,in Cc1ccccc1,1.45 ns
same,fluorescence lifetime,in ClC(Cl)Cl,1.59 ns
same,fluorescence lifetime,in ClCCl,2.53 ns
CC(C)(C)c1cc2ccc3cc(C(C)(C)C)cc4c(N(c5ccccc5)c5ccccc5)cc(c1)c2c34,fluorescence lifetime,in CCCCCC,3.1 ns
COc1c2ccccc2c(OC)c2c1c1cc(F)ccc1n2C,fluorescence lifetime,in C1CCCCC1,25 ns
same,fluorescence lifetime,in CC#N,25.3 ns
same,fluorescence lifetime,in CO,26.7 ns
same,fluorescence lifetime,in ClCCl,23.2 ns
CCCCC(CC)COc1ccc2nc(-c3ccc(-c4c(C)noc4C)s3)sc2c1 (configuration not stated),fluorescence lifetime,in ClCCl,1.8 ns
c1ccc2[nH]ccc2c1,fluorescence lifetime,in O,4.49 ns
CC(C)(C)c1ccc(/C=C/c2ccc(N(c3ccc(/C=C/c4ccc(C(C)(C)C)cc4)cc3)c3ccc(-c4nc5ccccc5nc4-c4ccc(N(c5ccc(/C=C/c6ccc(C(C)(C)C)cc6)cc5)c5ccc(/C=C/c6ccc(C(C)(C)C)cc6)cc5)cc4)cc3)cc2)cc1,fluorescence lifetime,in C1CCOC1,2.3 ns
CN(C)c1ccc(/C=C/C=C/C=C/c2ccc(B(O)O)cc2)cc1,fluorescence lifetime,in C1CCCCC1,0.75 ns
N#Cc1ccc(C=C(c2ccccc2)c2ccccc2)cc1,fluorescence lifetime,in C1CCOC1,31 ns
CNc1ccc2c(c1)-c1ccccc1C2=O,fluorescence lifetime,in CC#N,4.3 ns
same,fluorescence lifetime,in c1ccccc1,9.4 ns
Cc1cc(-n2c3ccccc3c3ccccc32)c(-n2c3ccccc3c3ccccc32)cc1C#N,fluorescence lifetime,[2],14.6 ns
same,fluorescence lifetime,in c1ccc2c(c1)c1ccccc1n2-c1ccc2sc3ccc(-n4c5ccccc5c5ccccc54)cc3c2c1,26.4 ns
same,fluorescence lifetime,in c1ccc2c(c1)c1ccccc1n2-c1ccc2sc3ccc(-n4c5ccccc5c5cccnc54)cc3c2c1,15.8 ns
same,fluorescence lifetime,in c1ccc2c(c1)c1cccnc1n2-c1ccc2sc3ccc(-n4c5ccccc5c5cccnc54)cc3c2c1,19.5 ns
CS1(C)C(/C=C/C2=C(c3ccc(C(=O)O)cc3)C(=C/C=C3/N(CCCCS(=O)(=O)[O-])c4ccccc4S3(C)C)/CCC2)=[N+](CCCCS(=O)(=O)[O-])c2ccccc21,fluorescence lifetime,in CC(C)=O,1.08 ns
same,fluorescence lifetime,in CCO,0.93 ns
same,fluorescence lifetime,in CO,0.72 ns
same,fluorescence lifetime,in CS(C)=O,1.26 ns
same,fluorescence lifetime,in ClC(Cl)Cl,1.31 ns
same,fluorescence lifetime,in ClCCl,1.19 ns
same,fluorescence lifetime,in O,0.33 ns
CN(C)c1ccc(C2=Cc3ccc4ccccc4[n+]3[B-](F)(F)O2)cc1,fluorescence lifetime,in ClC(Cl)Cl,2.8 ns
